Two molecules from PMC5355235, “FLT3 activating mutations display differential sensitivity to multiple tyrosine kinase inhibitors” (Oncotarget, 2017) can be followed below.

Molecules are shown by their SMILES. Positions count from the first letter of the chain named.

Assay type in all cases: cell-based
For one assay, the system named is FLT3 D835L+K. As to the kind of experiment: FLT3 autophosphorylation, immunoprecipitation/Western blot, D835L+K. The settings on record: D835L+K mutant, concentrations of 200 nM, 1 h. The procedure: (§1) Activated FLT3 expression was measured by performing immunoprecipitation, SDS-PAGE and Western blotting as previously described. Specifically, 10^7 cells were washed in medium and treated with inhibitor for 1 h followed by stimulation with 25 ng/ml of FLT3 ligand for 15 minutes where indicated. Cells were washed twice with ice-cold PBS and lysed in 300 µl of NP-40 lysis buffer (150 mM NaCl, 20 mM TrisHCl (pH7.4), 10% glycerol, 1% NP-40, 10 mM EDTA, 100 mM NaF) with 2 mM Na3VO4 and protease inhibitors (Complete Tablets, Roche, Mannheim, Germany) at 4°C for 30 m. Cell lysate was harvested by centrifugation at 13,000 × g for 30 m at 4°C. FLT3 S-18 antibody was incubated with 500 µg lysate overnight at 4°C followed by immunoprecipitation with protein A-agarose beads for 2 h. Beads were washed once in Tris buffered saline with 1% Tween-20 (TBST) and twice in TBS. Samples were boiled in sodium dodecyl sulfate (SDS) sample buffer prior to separating in a 8% SDS-polyacrylamide gel (SDS-PAGE). Proteins were transferred to a polyvinyl diflouride (PVDF) membrane (Millipore, Bedford, MA, USA) and detected by 4G10 phosphotyrosine antibody and anti-FLT3 S-18 antibody. FLT3 was visualized using the Odyssey Infra Red Imaging System from Li-Cor (Lincoln, NE, USA) using AlexaFluor 680 goat anti-mouse and AlexaFluor 800 goat anti-rabbit antibodies. […]
Background: A western blot detects proteins with antibodies after separation by electrophoresis.

The target of a further assay is T1, FLT3 I836T (Homo sapiens, UniProt P36888, I836T).
T1 construct: expressed in transfected cells; host or cells: BaF3
T1 sequence (P36888 27-993 I836T): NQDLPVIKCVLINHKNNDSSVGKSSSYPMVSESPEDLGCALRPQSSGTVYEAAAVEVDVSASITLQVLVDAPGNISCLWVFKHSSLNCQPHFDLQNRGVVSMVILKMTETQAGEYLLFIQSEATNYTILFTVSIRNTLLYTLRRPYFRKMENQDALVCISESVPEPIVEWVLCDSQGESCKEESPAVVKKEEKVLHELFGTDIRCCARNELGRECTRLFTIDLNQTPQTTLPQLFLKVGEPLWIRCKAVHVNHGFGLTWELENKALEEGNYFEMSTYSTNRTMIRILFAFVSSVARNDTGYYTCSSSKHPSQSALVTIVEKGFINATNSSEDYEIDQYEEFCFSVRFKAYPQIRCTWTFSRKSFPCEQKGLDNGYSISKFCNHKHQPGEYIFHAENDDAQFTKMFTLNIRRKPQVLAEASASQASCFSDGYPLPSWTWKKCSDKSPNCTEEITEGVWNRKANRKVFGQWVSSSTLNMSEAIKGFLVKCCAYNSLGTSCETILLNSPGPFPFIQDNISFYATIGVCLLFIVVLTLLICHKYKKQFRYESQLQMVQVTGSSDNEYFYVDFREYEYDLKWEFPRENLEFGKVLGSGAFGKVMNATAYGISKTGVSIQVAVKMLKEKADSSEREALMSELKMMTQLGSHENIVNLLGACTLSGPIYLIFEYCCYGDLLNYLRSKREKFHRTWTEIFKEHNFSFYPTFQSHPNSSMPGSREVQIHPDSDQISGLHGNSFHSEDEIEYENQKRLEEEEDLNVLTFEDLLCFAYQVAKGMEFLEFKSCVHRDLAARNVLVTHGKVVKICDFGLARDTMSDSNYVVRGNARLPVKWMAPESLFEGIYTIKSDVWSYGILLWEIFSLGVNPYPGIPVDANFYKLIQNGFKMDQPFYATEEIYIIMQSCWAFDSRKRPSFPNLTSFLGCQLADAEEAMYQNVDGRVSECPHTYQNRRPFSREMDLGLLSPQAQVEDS
As to the kind of experiment: FLT3 autophosphorylation, immunoprecipitation/Western blot, I836T. The following applies: I836T mutant, concentrations of 200 nM, 1 h. On the procedure: as §1

The target in the next assay is T2, FLT3 I836S (Homo sapiens, UniProt P36888, I836S).
T2 construct: expressed in transfected cells; host or cells: BaF3
T2 sequence (P36888 27-993 I836S): T1 sequence (P36888 27-993 I836T) with T810S
As to the kind of experiment: FLT3 autophosphorylation, immunoprecipitation/Western blot, I836S. The following applies: I836S mutant, concentrations of 200 nM, 1 h. The procedure: as §1

Regarding `CC1(COc2ccc3c(c2)ncn3-c2ccc3cccc(N4CCC(N)CC4)c3n2)COC1` [Crenolanib], the “Inhibition of FLT3 phosphorylation” value with FLT3 D835L+K, at FLT3 I836T and at FLT3 I836S was “significant autophosphorylation still observable” each time.
For `Cc1ccc(C(=O)Nc2ccc(CN3CCN(C)CC3)c(C(F)(F)F)c2)cc1C#Cc1cnc2cccnn12` [Ponatinib], the “Inhibition of FLT3 phosphorylation” value with FLT3 D835L+K, on FLT3 I836T and on FLT3 I836S was “significant autophosphorylation still observable” each time.
